Results published in patent US20250302832A1, “PYRAZINE DERIVATIVES AND USES THEREOF” (FOGHORN THERAPEUTICS INC., priority 2022, published 2025).
Blank lines part the entries; values can stand above or below the compound they belong to.

Columns and labels:
[1] = molecular target: T1, HiBit-BRG1 fusion protein (Homo sapiens, UniProt P51532); assay: HiBiT-BRG1 cell-based degradation assay (Nano-Glo HiBiT lytic detection, 24 h); conditions: HeLa cell line expressing HiBit-BRG1 and LgBit; for Dmax: read-out: BRG1 HiBit Degradation Maximum (%); for DC50: read-out: BRMG1 HiBit Degradation IC50
T1 construct: expressed in transfected cells
Method in brief: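 Luminescence from HiBiT/LgBiT complementation after lytic detection reagent was read following 24 h compound exposure of HeLa cells stably carrying HiBiT-BRG1 plus LgBiT (5000 cells/well). Signal scaled to % degradation using DMSO-treated cells as 0% and cells given 2 μM known BRM/BRG1 degrader as 100%.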

HiBit-BRM fusion protein = molecular target: T2, HiBit-BRM fusion protein (Homo sapiens, UniProt P51531); assay: HiBiT-BRM cell-based degradation assay (Nano-Glo HiBiT lytic detection, 24 h); conditions: HeLa cell line expressing HiBiT-BRM; for DC50: read-out: BRM HiBit Degradation IC50
T2 construct: expressed in transfected cells
Method in brief: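 Luminescence from LgBiT complementation quantified remaining HiBiT-BRM in stably expressing HeLa cells after 24 h compound exposure (top final dose 30 μM, 3-fold, 10 points, duplicate). Degradation expressed as percent relative to DMSO and a 2 μM reference degrader.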

T1 sequence (P51532 whole entry, the tested form may be a part): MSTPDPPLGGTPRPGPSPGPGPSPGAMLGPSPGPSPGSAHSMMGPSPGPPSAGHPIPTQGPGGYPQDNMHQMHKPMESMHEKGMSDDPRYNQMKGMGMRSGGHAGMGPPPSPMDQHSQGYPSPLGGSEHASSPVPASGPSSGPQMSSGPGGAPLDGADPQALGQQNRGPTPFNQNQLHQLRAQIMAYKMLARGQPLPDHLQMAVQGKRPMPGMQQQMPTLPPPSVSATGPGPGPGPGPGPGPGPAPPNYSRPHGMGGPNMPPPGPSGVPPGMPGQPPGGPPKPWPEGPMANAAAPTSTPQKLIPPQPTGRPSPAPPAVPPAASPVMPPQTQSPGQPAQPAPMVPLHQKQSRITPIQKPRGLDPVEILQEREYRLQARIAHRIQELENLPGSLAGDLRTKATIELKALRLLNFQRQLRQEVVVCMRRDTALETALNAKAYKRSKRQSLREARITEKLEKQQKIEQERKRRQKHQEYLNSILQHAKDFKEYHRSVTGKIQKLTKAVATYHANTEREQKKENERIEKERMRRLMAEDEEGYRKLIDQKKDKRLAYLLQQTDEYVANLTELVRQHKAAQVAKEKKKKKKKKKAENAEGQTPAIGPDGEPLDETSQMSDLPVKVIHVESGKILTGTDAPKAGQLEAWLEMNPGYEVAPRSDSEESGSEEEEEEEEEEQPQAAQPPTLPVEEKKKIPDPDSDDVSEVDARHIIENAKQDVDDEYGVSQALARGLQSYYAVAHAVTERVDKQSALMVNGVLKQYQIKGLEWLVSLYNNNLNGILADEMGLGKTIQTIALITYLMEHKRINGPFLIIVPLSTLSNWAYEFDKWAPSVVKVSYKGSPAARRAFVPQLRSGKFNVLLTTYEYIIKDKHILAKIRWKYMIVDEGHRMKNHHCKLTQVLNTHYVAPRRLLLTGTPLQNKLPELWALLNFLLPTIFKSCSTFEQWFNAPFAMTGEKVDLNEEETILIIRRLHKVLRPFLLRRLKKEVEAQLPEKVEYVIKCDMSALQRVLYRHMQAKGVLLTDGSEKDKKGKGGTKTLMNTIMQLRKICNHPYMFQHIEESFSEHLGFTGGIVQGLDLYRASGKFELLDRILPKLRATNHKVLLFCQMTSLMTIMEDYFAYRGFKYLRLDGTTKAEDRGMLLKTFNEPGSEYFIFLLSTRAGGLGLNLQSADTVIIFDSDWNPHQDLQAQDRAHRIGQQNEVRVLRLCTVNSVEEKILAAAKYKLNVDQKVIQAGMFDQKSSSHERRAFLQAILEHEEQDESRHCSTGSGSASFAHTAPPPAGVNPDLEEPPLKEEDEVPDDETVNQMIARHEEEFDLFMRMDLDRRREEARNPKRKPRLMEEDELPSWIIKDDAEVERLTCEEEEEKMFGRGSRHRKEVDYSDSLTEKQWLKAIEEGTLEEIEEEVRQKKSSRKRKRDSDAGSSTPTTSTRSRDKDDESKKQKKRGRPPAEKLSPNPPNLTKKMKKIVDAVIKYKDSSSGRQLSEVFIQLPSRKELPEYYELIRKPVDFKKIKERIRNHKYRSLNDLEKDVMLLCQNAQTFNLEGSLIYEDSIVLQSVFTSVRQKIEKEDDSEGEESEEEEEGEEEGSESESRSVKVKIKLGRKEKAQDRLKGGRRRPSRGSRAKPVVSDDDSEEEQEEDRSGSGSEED
T2 sequence (P51531 whole entry, the tested form may be a part): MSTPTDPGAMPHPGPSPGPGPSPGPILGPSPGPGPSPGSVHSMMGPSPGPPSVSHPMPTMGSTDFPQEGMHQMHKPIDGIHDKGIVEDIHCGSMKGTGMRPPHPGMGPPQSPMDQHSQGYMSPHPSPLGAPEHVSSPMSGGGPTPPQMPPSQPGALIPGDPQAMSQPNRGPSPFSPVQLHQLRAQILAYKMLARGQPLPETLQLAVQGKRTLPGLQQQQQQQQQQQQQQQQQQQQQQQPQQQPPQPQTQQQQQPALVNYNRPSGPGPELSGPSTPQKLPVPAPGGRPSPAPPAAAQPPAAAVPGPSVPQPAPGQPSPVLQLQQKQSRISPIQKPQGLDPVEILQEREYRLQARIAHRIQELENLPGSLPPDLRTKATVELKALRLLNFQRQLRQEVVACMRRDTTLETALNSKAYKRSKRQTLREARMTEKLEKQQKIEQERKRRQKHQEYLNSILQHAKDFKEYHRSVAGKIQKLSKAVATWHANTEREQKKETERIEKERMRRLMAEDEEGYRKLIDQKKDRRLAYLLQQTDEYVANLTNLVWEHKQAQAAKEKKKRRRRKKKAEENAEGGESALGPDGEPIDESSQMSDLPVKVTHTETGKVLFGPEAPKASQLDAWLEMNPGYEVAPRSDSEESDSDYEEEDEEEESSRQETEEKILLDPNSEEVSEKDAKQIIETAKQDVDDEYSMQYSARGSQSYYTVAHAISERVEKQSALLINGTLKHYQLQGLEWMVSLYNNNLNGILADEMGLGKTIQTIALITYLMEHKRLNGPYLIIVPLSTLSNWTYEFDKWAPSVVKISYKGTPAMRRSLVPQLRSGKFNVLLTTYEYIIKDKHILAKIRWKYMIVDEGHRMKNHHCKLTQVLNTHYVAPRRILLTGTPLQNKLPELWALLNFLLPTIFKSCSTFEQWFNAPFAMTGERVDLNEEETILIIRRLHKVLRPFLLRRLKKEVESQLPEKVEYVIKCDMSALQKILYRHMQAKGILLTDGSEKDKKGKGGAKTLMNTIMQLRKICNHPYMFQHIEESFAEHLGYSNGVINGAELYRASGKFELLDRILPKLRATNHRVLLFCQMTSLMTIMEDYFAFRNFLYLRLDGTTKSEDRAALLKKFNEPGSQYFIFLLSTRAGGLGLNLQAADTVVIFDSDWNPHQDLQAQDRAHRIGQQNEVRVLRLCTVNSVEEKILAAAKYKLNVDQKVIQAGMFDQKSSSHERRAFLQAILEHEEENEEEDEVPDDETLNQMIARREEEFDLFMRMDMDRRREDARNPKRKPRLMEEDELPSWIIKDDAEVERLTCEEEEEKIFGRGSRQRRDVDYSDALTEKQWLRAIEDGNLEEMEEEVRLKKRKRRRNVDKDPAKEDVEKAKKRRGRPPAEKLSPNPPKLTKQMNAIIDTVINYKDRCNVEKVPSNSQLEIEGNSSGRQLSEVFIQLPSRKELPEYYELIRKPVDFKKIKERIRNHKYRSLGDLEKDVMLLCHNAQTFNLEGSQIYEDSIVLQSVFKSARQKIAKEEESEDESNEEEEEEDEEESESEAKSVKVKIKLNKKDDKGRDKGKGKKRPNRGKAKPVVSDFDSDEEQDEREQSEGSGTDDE

Compound: Cc1ncsc1-c1ccc([C@H](C)NC(=O)[C@@H]2C[C@@H](O)CN2C(=O)[C@@H](c2cc(-c3cnc(N4CC[C@@H](c5cc6nnc(-c7ccccc7O)cc6n5C5CCC5)C4)nc3)no2)C(C)C)cc1 [Compound 102, (2S,4R)-1-((R)-2-(3-(2-((R)-3-(5-cyclobutyl-3-(2-hydroxyphenyl)-5H-pyrrolo[3,2-c]pyridazin-6-yl)pyrrolidin-1-yl)pyrimidin-5-yl)isoxazol-5-yl)-3-methylbutanoyl)-4-hydroxy-N-((S)-1-(4-(4-methylthiazol-5-yl)phenyl)ethyl)pyrrolidine-2-carboxamide]
Dmax [1]: < 50%
BRM HiBit Degradation Maximum (%) (HiBit-BRM fusion protein): A (“A” indicates maximum degradation ≥75%)
DC50 (HiBit-BRM fusion protein): < 10 nM

Compound: Cc1ncsc1-c1ccc([C@H](C)NC(=O)[C@@H]2C[C@@H](O)CN2C(=O)[C@@H](c2cc(N3CC4(CC(c5cc6nnc(-c7ccccc7O)cc6n5C5CCC5)C4)C3)no2)C(C)C)cc1 [Compound 105, (2S,4R)-1-[(2R)-2-(3-{6-[5-cyclobutyl-3-(2-hydroxyphenyl)pyrrolo[3,2-c]pyridazin-6-yl]-2-azaspiro[3.3]heptan-2-yl}-1,2-oxazol-5-yl)-3-methylbutanoyl]-4-hydroxy-N-[(1S)-1-[4-(4-methyl-1,3-thiazol-5-yl)phenyl]ethyl]pyrrolidine-2-carb oxamide]
Dmax [1]: < 50%
BRM HiBit Degradation Maximum (%) (HiBit-BRM fusion protein): A (“A” indicates maximum degradation ≥75%)
DC50 (HiBit-BRM fusion protein): < 10 nM

Compound: Cc1ncsc1-c1ccc([C@H](C)NC(=O)[C@@H]2C[C@@H](O)CN2C(=O)[C@@H](c2cc(-c3cnc(N4CC[C@@H](c5cc6nnc(-c7cccc(F)c7O)cc6n5C5CC5)C4)nc3)no2)C(C)C)cc1 [Compound 106, (2S,4R)-1-((R)-2-(3-(2-((R)-3-(5-cyclopropyl-3-(3-fluoro-2-hydroxyphenyl)-5H-pyrrolo[3,2-c]pyridazin-6-yl)pyrrolidin-1-yl)pyrimidin-5-yl)isoxazol-5-yl)-3-methylbutanoyl)-4-hydroxy-N-((S)-1-(4-(4-methylthiazol-5-yl)phenyl)ethyl)pyrrolidine-2-carboxamide]
Dmax [1]: < 50%
BRM HiBit Degradation Maximum (%) (HiBit-BRM fusion protein): B (“B” indicates maximum degradation ≥50%)
DC50 (HiBit-BRM fusion protein): > 10 nM

More lines, main results first:

Dmax [1]: > 50%
DC50 [1]: < 10 nM
DC50 (HiBit-BRM fusion protein): < 10 nM
Compound: Cc1ncsc1-c1ccc([C@H](C)NC(=O)[C@@H]2C[C@@H](O)CN2C(=O)[C@@H](c2cc(-c3cnc(N4CC[C@@H](c5cc6nnc(-c7ccccc7O)cc6n5C5(C)CC5)C4)nc3)no2)C(C)C)cc1 [Compound 103, (2S,4R)-4-hydroxy-1-((R)-2-(3-(2-((R)-3-(3-(2-hydroxyphenyl)-5-(1-methylcyclopropyl)-5H-pyrrolo[3,2-c]pyridazin-6-yl)pyrrolidin-1-yl)pyrimidin-5-yl)isoxazol-5-yl)-3-methylbutanoyl)-N-((S)-1-(4-(4-methylthiazol-5-yl)phenyl)ethyl)pyrrolidine-2-carboxamide]
BRM HiBit Degradation Maximum (%) (HiBit-BRM fusion protein): A (“A” indicates maximum degradation ≥75%)

Dmax [1]: > 75%
DC50 [1]: < 10 nM
DC50 (HiBit-BRM fusion protein): < 10 nM
Compound: Cc1ncsc1-c1ccc([C@H](C)NC(=O)[C@@H]2C[C@@H](O)CN2C(=O)[C@@H](c2cc(-c3cnc(N4CC[C@H](c5cc6nnc(-c7ccccc7O)cc6n5C5(C)CC5)C4)nc3)no2)C(C)C)cc1 [Compound 104, (2S,4R)-4-hydroxy-1-((R)-2-(3-(2-((S)-3-(3-(2-hydroxyphenyl)-5-(1-methylcyclopropyl)-5H-pyrrolo[3,2-c]pyridazin-6-yl)pyrrolidin-1-yl)pyrimidin-5-yl)isoxazol-5-yl)-3-methylbutanoyl)-N-((S)-1-(4-(4-methylthiazol-5-yl)phenyl)ethyl)pyrrolidine-2-carboxamide]
BRM HiBit Degradation Maximum (%) (HiBit-BRM fusion protein): A (“A” indicates maximum degradation ≥75%)
